According to PMC8973350, “4-Anilinoquinazoline-based benzenesulfonamides as nanomolar inhibitors of carbonic anhydrase isoforms I, II, IX, and XII: design, synthesis, in-vitro, and in-silico biological studies” (Journal of Enzyme Inhibition and Medicinal Chemistry, 2022):

Experiments:
hCA IX = hCA IX (Homo sapiens, UniProt Q16790); assay: stopped flow CO2 hydrase assay, hCA IX; assay type: biochemical; settings: errors ±5–10% of the stated values
Protocol: (§1) The activity of the CA-catalyzed CO2 hydration reaction was evaluated employing an applied photophysics stopped-flow instrument. […] A minimum of six traces of the starting 5–10% of the reaction were analysed to measure the initial velocity for each inhibitor. In a similar manner, the uncatalyzed rates were evaluated and subtracted from the overall calculated rates. Stock inhibitor solutions (10 mM) were prepared in distilled–deionized water, and dilutions up to 0.01 nM were prepared with distilled–deionized water after that. Preincubation of the inhibitor enzyme solutions at room temperature to enable the formation of the E-I complex was carried out for 15 min before starting the experiment. The inhibition constants were determined employing PRISM 3, while the kinetic parameters for the uninhibited enzymes were calculated using Lineweaver-Burk plots that comprise the mean of at least three separate measurements with errors ranging to ±5–10% of the stated values[37]^,[38].
(§2) This panel comprised the two ubiquitously expressed cytosolic hCA I and II isoforms, along with the two tumour-related transmembrane hCA IX and XII isoforms.

hCA XII = hCA XII (Homo sapiens, UniProt O43570); assay: stopped flow CO2 hydrase assay, hCA XII; assay type: biochemical; settings: errors ±5–10% of the stated values
Sequence of hCA XII (O43570 25-354): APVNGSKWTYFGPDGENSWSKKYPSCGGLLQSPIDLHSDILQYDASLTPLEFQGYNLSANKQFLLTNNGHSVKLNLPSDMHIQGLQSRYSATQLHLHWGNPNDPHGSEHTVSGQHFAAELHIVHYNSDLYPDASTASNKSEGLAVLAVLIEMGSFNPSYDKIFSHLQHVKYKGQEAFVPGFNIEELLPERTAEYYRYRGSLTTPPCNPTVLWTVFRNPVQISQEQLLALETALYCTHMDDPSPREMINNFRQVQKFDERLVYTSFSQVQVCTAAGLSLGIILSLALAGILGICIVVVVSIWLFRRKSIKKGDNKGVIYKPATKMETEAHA
Protocol: as §1, §2

hCA II = hCA II (Homo sapiens, UniProt P00918); assay: stopped flow CO2 hydrase assay, hCA II; assay type: biochemical; settings: for Ki: stopped flow CO2 hydrase assay, errors ±5–10% of the stated values; for folds of potency compared to AAZ against isoform hCA II: relative to AAZ (12.1 nM); for inhibitory activity against hCA II (in words): compared to their para-sulphonamide analogues
Protocol: as §1, §2

hCA I = hCA I (Homo sapiens, UniProt P00915); assay: stopped flow CO2 hydrase assay, hCA I; assay type: biochemical; settings: for Ki: stopped flow CO2 hydrase assay, errors ±5–10% of the stated values; for folds higher potency against hCA I when compared to the standard (AAZ, V): relative to AAZ
Sequence of hCA I (P00915 whole entry): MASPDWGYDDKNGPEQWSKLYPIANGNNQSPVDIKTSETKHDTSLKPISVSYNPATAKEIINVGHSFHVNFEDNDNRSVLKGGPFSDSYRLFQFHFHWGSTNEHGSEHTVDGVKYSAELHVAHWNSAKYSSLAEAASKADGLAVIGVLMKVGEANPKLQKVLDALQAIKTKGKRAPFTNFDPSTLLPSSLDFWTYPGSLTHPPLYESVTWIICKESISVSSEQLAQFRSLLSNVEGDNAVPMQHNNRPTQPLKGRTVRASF
Protocol: as §1, §2

Compound | Ki (hCA IX) [nM] | Ki (hCA XII) [nM] | Ki (hCA II) [nM] | Ki (hCA I) [nM] | folds higher potency against hCA I when compared to the standard (AAZ, V) (hCA I) [folds] | folds of potency compared to AAZ against isoform hCA II (hCA II) [folds] | inhibitory activity against hCA II (in words) (hCA II) | inhibitory activity against hCA I (in words) (hCA I) | melting point [°C]
NS(=O)(=O)c1ccc(Nc2ncnc3ccc(-c4ccc(F)cc4)cc23)cc1 [Compound 4c, 4-((6–(4-fluorophenyl)quinazolin-4-yl)amino)benzenesulfonamide] | 560 | 93 | 47.1 | 931 |  |  |  |  | 
NS(=O)(=O)c1ccc(Nc2ncnc3cc(-c4cccc(O)c4)ccc23)cc1 [Compound 4j, 4-((7–(3-hydroxyphenyl)quinazolin-4-yl)amino)benzenesulfonamide] | 245 | 66.7 | 66.3 | 361 |  |  |  |  | 
NS(=O)(=O)c1ccc(Nc2ncnc3ccc(-c4ccsc4)cc23)cc1 [Compound 4f, 4-((6-(thiophen-3-yl)quinazolin-4-yl)amino)benzenesulfonamide] | 86.5 | 89.5 | 37.1 | 60.9 | 4 |  |  |  | 
NS(=O)(=O)c1ccc(Nc2ncnc3ccc(Br)cc23)cc1 [Compound 3a] | 174 | 46.5 | 8.7 | 89.4 | 2.8 | 1.4 |  |  | 
COc1ccc(-c2ccc3ncnc(Nc4ccc(S(N)(=O)=O)cc4)c3c2)cc1 [Compound 4e, 4-((6–(4-methoxyphenyl)quinazolin-4-yl)amino)benzenesulfonamide] | 86.9 | 77 | 4.6 | 91.2 | 2.7 | 2.6 |  |  | 
NS(=O)(=O)c1ccc(Nc2ncnc3ccc(-c4ccccc4)cc23)cc1 [Compound 4a, 4-((6-phenylquinazolin-4-yl)amino)benzenesulfonamide] | 180 | 65.7 | 2.4 | 600 |  | 5 |  |  | 
NS(=O)(=O)c1ccc(Nc2ncnc3ccc(-c4ccc(C=O)cc4)cc23)cc1 [Compound 4b, 4-((6–(4-formylphenyl)quinazolin-4-yl)amino)benzenesulfonamide] | 86.9 | 67.4 |  | 651 |  |  |  |  | 
NS(=O)(=O)c1ccc(Nc2ncnc3ccc(-c4ccc(N5CCOCC5)cc4)cc23)cc1 [Compound 4h, 4-((6–(4-morpholinophenyl)quinazolin-4-yl)amino)benzenesulfonamide] | 337 | 49.8 | 112 | 548 |  |  |  |  | 
NS(=O)(=O)c1ccc(Nc2ncnc3ccc(-c4cccc([N+](=O)[O-])c4)cc23)cc1 [Compound 4d, 4-((6–(3-nitrophenyl)quinazolin-4-yl)amino)benzenesulfonamide] | 265 | 90.7 | 55.7 | 588 |  |  |  |  | 

Other lines, results leading:

Ki (hCA IX) [nM] | Ki (hCA XII) [nM] | Ki (hCA II) [nM] | Ki (hCA I) [nM] | folds higher potency against hCA I when compared to the standard (AAZ, V) (hCA I) [folds] | folds of potency compared to AAZ against isoform hCA II (hCA II) [folds] | inhibitory activity against hCA II (in words) (hCA II) | inhibitory activity against hCA I (in words) (hCA I) | melting point [°C] | Compound
229 | 30.5 | 231 | 3130 |  |  |  |  |  | NS(=O)(=O)c1cccc(Nc2ncnc3ccc(-c4ccc(F)cc4)cc23)c1 [Compound 4g, 3-((6–(4-fluorophenyl)quinazolin-4-yl)amino)benzenesulfonamide]
95.3 | 39.4 | 5760 | 7100 |  |  | loss of activity | lost all activity |  | NS(=O)(=O)c1cccc(Nc2ncnc3ccc(Br)cc23)c1 [Compound 3b]
90.3 | 69.7 | 2520 | 4680 |  |  | loss of activity |  |  | NS(=O)(=O)c1cccc(Nc2ncnc3cc(-c4cccc(O)c4)ccc23)c1 [Compound 4k, 3-((7–(3-hydroxyphenyl)quinazolin-4-yl)amino)benzenesulfonamide]
488 | 52.7 | 2420 | 5580 |  |  |  |  |  | NS(=O)(=O)c1cccc(Nc2ncnc3ccc(-c4ccc(C=O)o4)cc23)c1 [Compound 4i, 3-((6–(5-formylfuran-2-yl)quinazolin-4-yl)amino)benzenesulfonamide]
88.8 | 89.4 | 678 | 6570 |  |  | loss of activity |  | 327 to 329 | NS(=O)(=O)c1cccc(Nc2ncnc3ccc(-c4ccccc4)cc23)c1 [Compound 4l, 3-((6-phenylquinazolin-4-yl)amino)benzenesulfonamide]
